Results as given in patent US11315685B2, “Method and system for predicting optimal epilepsy treatment regimes” (UCB BIOPHARMA SPRL, priority 2017, dated 2022).

Test system: epilepsy patients
Test: treatment stability of AED monotherapy in the one year evaluation period (medical claims data)
Assay type: in vivo
Details: percentage of patients for which the treatment worked based on the clinician's recommendation; stable = monotherapy for at least 80% of the one year evaluation period without switching; adult epilepsy patients
Description: Step 18 may also include a substep 18e of filtering patients according to a defined target variable indicating AED treatment regime efficacy. In some preferred embodiments, the target variable is treatment stability. An aim of the present disclosure is to measure the efficacy of treatment regimens consisting of one or more AEDs. One way of measuring the efficacy of treatment would be to monitor the patient's progress with respect to seizure frequency before and after treatment. A reduction in the number of seizures would imply that the regimen is effective. […] Accordingly, method 10 defines a proxy for treatment effectiveness. Based on input from domain experts and clinicians, method 10 uses treatment stability as an indicator of the effectiveness of a particular treatment. In some preferred embodiments, a treatment regimen is considered stable for a patient if the patient satisfies a treatment change criteria and a minimum coverage criteria. […] The minimum coverage criteria is satisfied if the patient complies with the treatment regimen which has been prescribed for at least a predetermined percentage of the evaluation period. In one preferred embodiment, the minimum coverage criteria is satisfied if the patient complies with the treatment regimen which has been prescribed for at least 80% evaluation period.
If the MPR is greater than 80%, the patient can be determined to be stable for that drug.
For the unstable outcome, a treatment change occurs during the evaluation period—i.e., within […] the index date at which a first treatment regimen R1 is prescribed—in the form of a second treatment regimen R2. For the stable outcome, a treatment change—i.e., the second regimen R2—occurs after the evaluation period.
In this embodiment, for simplicity, the three aforementioned treatment categories—i.e., ADD, SWITCH and NEW—are not differentiated between when defining the index date and, in contrast to the technique in Devinsky et al., all medication claims for a patient in the baseline period before the AED-specific index date are used to train the AED-specific predictive model for the patient. In other embodiments, the treatment categories can be analyzed separately to assess the efficacy of a treatment regimen in different scenarios. In this embodiment, predictive models are built only for monotherapies, instead of for both monotherapies and combination therapies. For a particular AED, all the adult patients who have been prescribed the AED, have at least 1 year of medical history before the prescription and have at least one year of evaluation period after prescription are analyzed. As mentioned above, this subset of patients constitutes the cohort for the predictive model for the AED being analyzed and the target variable is treatment stability.
The control patients refer to the number of patients which switched to treatments other than the one being analyzed in the evaluation window and were considered unstable on that treatment regimen. The percentage baseline success rate refers to the percentage of patients for which the treatment worked based on the clinician's recommendation. The AUC refers to the area under the ROC curve or the C-statistic which is the ratio of the true positive rate (TPR) and the false positive rate (FPR) for different values of the threshold. This ratio reflects the performance of the model since a higher AUC would imply that higher TPR was achieved and more true positives were obtained than false positives.

Row | Compound | Percentage Baseline Success Rate
1 | NC(=O)N1c2ccccc2C=Cc2ccccc21 [CARBAMAZEPINE] | 54.76
2 | O=C1CN=C(c2ccccc2Cl)c2cc([N+](=O)[O-])ccc2N1 [CLONAZEPAM, Clonazepam] | 30.98
3 | CN1C(=O)CN=C(c2ccccc2)c2cc(Cl)ccc21 [DIAZEPAM, Diazepam] | 25.22
4 | NCC1(CC(=O)O)CCCCC1 [GABAPENTIN, Gabapentin] | 35.69
5 | COC[C@@H](NC(C)=O)C(=O)NCc1ccccc1 [LACOSAMIDE, Lacosamide] | 37.73
6 | Nc1nnc(-c2cccc(Cl)c2Cl)c(N)n1 [LAMOTRIGINE, Lamotrigine] | 53.32
7 | CC[C@@H](C(N)=O)N1CCCC1=O [LEVETIRACETAM, Levetiracetam] | 54.99
8 | O=C1Nc2ccc(Cl)cc2C(c2ccccc2Cl)=NC1O (stereo not drawn) [LORAZEPAM, Lorazepam] | 25.28
9 | NC(=O)N1c2ccccc2CC(=O)c2ccccc21 [OXCARBAZEPINE, Oxcarbazepine] | 52.83
10 | CCC1(c2ccccc2)C(=O)NC(=O)NC1=O [PHENOBARBITAL, Phenobarbital] | 55.76
11 | O=C1NC(=O)C(c2ccccc2)(c2ccccc2)N1 [PHENYTOIN, Phenytoin] | 45.01
12 | CC(C)C[C@H](CN)CC(=O)O [PREGABALIN, Pregabalin] | 28.60
13 | CCC1(c2ccccc2)C(=O)NCNC1=O [PRIMIDONE, Primidone] | 48.94
14 | CC1(C)O[C@@H]2[C@@H](CO[C@@]3(COS(N)(=O)=O)OC(C)(C)O[C@@H]23)O1 [TOPIRAMATE, Topiramate] | 38.97
15 | NS(=O)(=O)Cc1noc2ccccc12 [ZONISAMIDE, Zonisamide] | 42.95
